Laboratory results published in patent publication EP2229935A1, “Peptide derivatives or pharmaceutically acceptable salts thereof, method for producing the same, use of said derivatives and pharmaceutical composition” (Nebolsin, Vladimir Evgenievich, priority 1997, dated 1999).
Where “and” joins values, the source holds several entries; their conditions need not be identical. Equal entries are not always repeated. Marks after values point to notes of the source that are not given here.

Key:
[1] = tested on: hepatic P-450 cytochrome system; test: Hexenal sleep duration in mice; format: in vivo
How it was run: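 Male mice (several inbred/hybrid lines, 18-20 g, n=10) and mongrel male guinea pigs (250-300 g, n=24) given compounds orally in drinking water for three days at 50 and 500 µg/kg. Hexenal given 24 h after last dose ([…]); sleep duration recorded in minutes.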

mongrel female rats = test: Hepatoprotective activity: subchronic liver lesion (hepatitis) with CCl4; format: in vivo; details: for Cholesterol level, mg/100 ml VLDL-CS / Cholesterol level, mg/100 ml LDL-CS / Cholesterol level, mg/100 ml HDL-CS / Cholesterol level, mg/100 ml total-CS / TG level, mg/100ml / ALT, nM/dl / AST, nM/dl: blood serum; for Cholesterol level, mg/100 ml VLDL-CS: TG/5; for Cholesterol level, mg/100 ml LDL-CS: calculated by formula; for ALT, nM/dl / AST, nM/dl: oral 8 days
Description: Hepatoprotective properties of the compounds were studied on a model of subchronic liver lesion (hepatitis) with carbon quadrichloride.
70 mongrel female rats with initial body mass 190-200 g fed a standard vivarium ration, were used in experiment. Animals were divided into 7 groups (10 rats each): • Group 1 - control one; during the first four days of experiment animals were subcutaneously injected 0.2 ml vaseline oil; • Group 2 - during the first four days animals were subcutaneously injected 50% CCl4 solution in vaseline oil at a rate of 0.1 ml per 100 g body mass; • Group 3 - Legalon in a starch gel was administered orally for 8 days at a dose 30 mg/kg against the background of CCl4 administration; […] , resepectively, was administered in a way similar to group III; […] , resepectively, was administered in a way similar to group III.
The test compounds and Legalon were administered to animals 1 hour prior to CCl4 administration. 24 hours after the last administration of the drugs, animals were decapitated.
Activity of blood serum transaminases ALT and AST was assessed using the conventional Frenkel-Rightman method [Laboratory examination methods in the clinic. Ed. by Menshikov V.V. Moscow, Meditsina publishers (1969), 302 pp.].
The published method [Rodionova L.P. Modification of blood serum trigyceride level determination method. Laboratomoye delo (Laboratory Matter) (1980), No 5, pp. 297-299] was used to determine blood serum TG level.
Blood serum LP final product MDA was determined using the published method [Korobeinikova E.N. Modification of lipid peroxydation product determination in reaction with thiobarbituric acid. Laboratomoye delo (Laboratory Matter) (1989), No 7, pp. 8-10]. Concentration of TBA-active products was calculated using regression equation: C = 0.21 + 0.26D, [formula] where C - concentration of TBA-active products (in nM MDA per 1 ml of serum), D - index D535 -D580 (in optic density units).
Total hepatic lipids were extracted using the modified Folch method [Cates M. Technology of Lipidology. Moscow, Mir publishers (1975), pp. 74-76]. Quantative content of lipid fractions was assessed with thin layer chromatography method (TLC) using the system of solvents hexane:diethyl ether:acetic acid at ratio 80:20:2. Zones of individual lipid fractions were determined using 10% alcohol solution of phosphoromolyobdenic acid which following elution were spectrophotometrically analysed at 600 nm.
Hepatic MDA level was determined using the published method [Stalnaya I.D., Garishvili T.G. Malonic dialdehyde determination method using thiobarbituric acid. In: Modem methods in biochemistry. Moscow, Meditsina publishers (1977), pp. 66-69]. MDA quantity was calculated using molar extinction coefficient value of stained trimethynic complex formed by MDA with two TBA molecules: E = 1.56 × 10^5 (cm)^-1 × M^-1 [formula]

NK-cells = test: Activity of NK-cells after swimming stress (H^3-uridine release from YAC-1); format: in vivo, Balb male mice; details: 50 µg/kg orally four times
Description: Experiments were carried out on inbred Balb male mice with initial body mass 16-18 g. Each group included 12 animals. The model of swimming in warm water for 20 minutes was used to develop emotional-locomotory stress in animals. Stress development was estimated by the activity of natural killer lymphocytes (NK cells) and by functioning of the interferon system [Sukhikh T.G., Nossik N.N., Parshina O.V., Van'ko L.V., Meerson F.Z., Yershov F.I. Relationship between the natural cellular cytotoxicity system and the interferon system in immobilization stress. Bulletin of Experimental Biology (1984), ? , pp.593-595].
Activity of NK-cells was determined in the test of H^3-uridine release from the labelled target cells YAC-1 (mouse cellular lymphoma maintained by passages in vitro in suspension in the RPMI-1640 medium with 10% fetal serum). H^3-uridine (3-5 µC/cells/ml) was introduced into cellular suspension at concentration 1 miilion cells/ml on the 60th minute while shaking with 15 minute inerval and subsequent washing with the medium.
Splenocytes of mice which were obtained using the published method [Nossik N.N., Bopegamage S.A., Yershov F.I. Properties of interferons produced by different cell populations. Acta microbiologica Hungarica (1988), Vol. 35, Iss. 4, pp. 397-403] served as the source of NK-cells.
Animals were divided into four groups, each including 36 mice. • Group 1 - intact animals not subjected to stress and given normal saline (NS). • Group 2 - animals which ere subjected to stress effect and given NS. • Group 3 - animals which were subjected to stress effect and administered compound III. • Group 4 - animals which were subjected to stress effect and administered compound XLIV.
Activity of NK-cells and interferon state were dynamically determined in 4 hours following stress, in 24 hours and then by days 5, 7 and 10.

[2] = rats, CCl4 hepatitis, 0.05 µg/kg
[3] = rats, CCl4 hepatitis, 0.5 µg/kg
[4] = rats, CCl4 hepatitis, daily dose 0.05 mg/kg
[5] = rats, CCl4 hepatitis, daily dose 0.50 mg/kg
[6] = rats, CCl4 hepatitis, 0.05 mg/kg
[7] = rats, CCl4 hepatitis, 0.50 mg/kg
[8] = rats, CCl4 hepatitis, liver, 0.05 µg/kg
[9] = rats, CCl4 hepatitis, liver, 0.5 µg/kg

Row | Compound | Cholesterol level, mg/100 ml VLDL-CS (mongrel female rats; [2]) | Cholesterol level, mg/100 ml VLDL-CS (mongrel female rats; [3]) | Cholesterol level, mg/100 ml LDL-CS (mongrel female rats; [2]) | Cholesterol level, mg/100 ml LDL-CS (mongrel female rats; [3]) | Cholesterol level, mg/100 ml HDL-CS (mongrel female rats; [2]) | Cholesterol level, mg/100 ml total-CS (mongrel female rats; [2]) | TG level, mg/100ml (mongrel female rats; [2]) | Cholesterol level, mg/100 ml HDL-CS (mongrel female rats; [3]) | Cholesterol level, mg/100 ml total-CS (mongrel female rats; [3]) | TG level, mg/100ml (mongrel female rats; [3]) | ALT, nM/dl (mongrel female rats; [4]) | AST, nM/dl (mongrel female rats; [4]) | ALT, nM/dl (mongrel female rats; [5]) | AST, nM/dl (mongrel female rats; [5]) | Hepatic MDA, nM/l (mongrel female rats; [6]) | Serum MDA, nM/l (mongrel female rats; [6]) | Hepatic MDA, nM/l (mongrel female rats; [7]) | Serum MDA, nM/l (mongrel female rats; [7]) | activity of NK-cells (NK-cells; 0.16 days after stress) | activity of NK-cells (NK-cells; 1 day after stress) | also measured
1 | O=C(O)CCCC(=O)NCCc1c[nH]cn1 [compound III, N-GLUTARYLHISTAMINE] | 17.7 ± 2.0 mg/100 ml | 15.8 ± 1.0 p<0.05 mg/100 ml | 19.6 ± 1.4 p<0.01 mg/100 ml | 12.0 ± 0.6 mg/100 ml | 52.3 ± 2.9 mg/100 ml | 89.5 ± 3.8 mg/100 ml | 88.0 ± 10.2 mg/100ml | 59.3 ± 2.6 mg/100 ml | 87.0 ± 2.6 mg/100 ml | 78.6 ± 5.4 p<0.05 mg/100ml | 624 ± 31 nM/dl | 478 ± 26 nM/dl | 609 ± 42 nM/dl | 522 ± 33 nM/dl | 5.00 ± 0.15 p<0.05 nM/l | 5.86 ± 0.70 nM/l | 4.60 ± 0.52 p<0.05 nM/l | 5.77 ± 0.15 p<0.05 nM/l | 68.5 ± 0.99*^1,2 | 69.3 ± 1.81***^2 | Hexenal sleep duration (minutes) ([1]; CBF1 mice, oral 3 days, 50 µg/kg, control 25.91 ± 1.57): 19.61 ± 2.69** minutes; Hexenal sleep duration (minutes) ([1]; CBF1 mice, oral 3 days, 500 µg/kg, control 25.91 ± 1.57): 22.02 ± 1.45 * minutes; Lipid composition (in percent of total lipids) FCS (mongrel female rats; 5e-05 mg/kg): 20.3 ± 0.8 p<0.05% of total lipids; Lipid composition (in percent of total lipids) Phospholipids (mongrel female rats; 5e-05 mg/kg): 24.4 ± 0.7 p<0.05% of total lipids; Lipid composition (in percent of total lipids) Triglycerides (mongrel female rats; 5e-05 mg/kg): 35.5 ±1.1% of total lipids; Lipid composition (in percent of total lipids) FCS (mongrel female rats; 0.0005 mg/kg): 18.9 ± 0.7% of total lipids; Lipid composition (in percent of total lipids) Phospholipids (mongrel female rats; 0.0005 mg/kg): 23.8 ± 1.0 p<0.05% of total lipids; Lipid composition (in percent of total lipids) Triglycerides (mongrel female rats; 0.0005 mg/kg): 35.3 ± 0.7% of total lipids; activity of NK-cells (NK-cells; 5 days after stress): 79 ± 1.46; activity of NK-cells (NK-cells; 7 days after stress): 69.3 ± 4.85; activity of NK-cells (NK-cells; 10 days after stress): 77 ± 1.98
2 | γ-L-glutamylhistamine [compound XLIV] | 13.9 ± 1.1 p<0.01 mg/100 ml | 12.4 ± 0.7 p<0.001 mg/100 ml | 21.9 ± 1.1 p<0.001 mg/100 ml | 17.1 ± 1.0 p<0.01 mg/100 ml | 49.6 ± 2.5 mg/100 ml | 85.3 ± 3.9 mg/100 ml | 68.3 ± 5.7 p<0.001 mg/100ml | 57.5 ± 5.1 mg/100 ml | 87.2 ± 6.5 mg/100 ml | 62.4 ± 3.9 p<0.001 mg/100ml | 599 ± 18 nM/dl | 470 ± 17 nM/dl | 551 ± 28 nM/dl | 475 ± 19 nM/dl | 4.47 ± 0.45 p<0.05 nM/l | 5.82 ± 0.38 p<0.05 nM/l | 3.51 ± 0.30 p<0.001 nM/l | 4.72 ± 0.57 p<0.01 nM/l | 69.5 ± 1.32**^2 | 61.5 ± 2.64*^1,2 | Hexenal sleep duration ([1]; BALB/c*h75 mice, oral 3 days, 50 µg/kg, control 29.16 ± 5.68): 26.50 ± 3.49 min; Hexenal sleep duration (minutes) ([1]; BALB/c*h75 mice, oral 3 days, 500 µg/kg, control 29.16 ± 5.68): 16.72 ± 1.27*** minutes; Hexenal sleep duration (minutes) ([1]; BDF1 mice, oral 3 days, 500 µg/kg, control 23.78 ± 0.78): 20.33 ± 0.59* minutes; Hexenal sleep duration (minutes) ([1]; mouse, in vivo, po): 17.98 ± 1.66* minutes and 16.13 ± 1.86** minutes; Lipid composition (in percent of total lipids) FCS (mongrel female rats; [8]): 18.0 ± 0.8% of total lipids; Lipid composition (in percent of total lipids) Phospholipids (mongrel female rats; [8]): 22.8 ± 0.9% of total lipids; Lipid composition (in percent of total lipids) Triglycerides (mongrel female rats; [8]): 39.9 ± 1.7% of total lipids; Lipid composition (in percent of total lipids) FCS (mongrel female rats; [9]): 20.6 ± 0.8 p<0.05% of total lipids; Lipid composition (in percent of total lipids) Phospholipids (mongrel female rats; [9]): 26.1 ± 0.6 p<0.001% of total lipids; Lipid composition (in percent of total lipids) Triglycerides (mongrel female rats; [9]): 33.9 ± 1.0 p<0.05% of total lipids; activity of NK-cells (NK-cells; 5 days after stress): 71 ± 0.82; activity of NK-cells (NK-cells; 7 days after stress): 67.7 ± 3.95; activity of NK-cells (NK-cells; 10 days after stress): 77.5 ± 1.65
